Columns and labels:
[1] = tested on: ducksalad; test: Test B flooded paddy test; type: in vivo, Heteranthera limosa; settings: 1000 g ai/ha, visual rating, scale 0 to 100 (0 no effect, 100 complete control), 13 to 15 days
In short: (§1)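 Postemergence plants were sprayed with formulated test chemicals at 2 to 18 cm height (1- to 4-leaf stage); paddy species were grown to the 2-leaf stage. After 13 to 15 days in a greenhouse, injury was rated visually against untreated controls on a 0–100 scale (0 = no effect, 100 = complete control).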

[2] = tested on: cocklebur; test: Test B pre-/postemergence herbicide test; type: in vivo, Xanthium strumarium; settings: for Cocklebur plant response rating: postemergence, visual rating, scale 0 (no effect) to 100 (complete control)
In short: (§2)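 Seeds were planted and treated preemergence with compounds formulated in a non-phytotoxic solvent mixture containing surfactant, while plants at the 1- to 4-leaf stage (2 to 18 cm) received postemergence sprays. Flooded paddy plants were grown to the 2-leaf stage. After 13 to 15 days in a greenhouse, injury was visually rated 0–100 against untreated controls.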

[3] = tested on: morningglory; test: Test B pre-/postemergence herbicide test; type: in vivo, Ipomoea coccinea; settings: for Morningglory plant response rating: postemergence, visual rating, scale 0 (no effect) to 100 (complete control)
In short: as §2

[4] = tested on: blackgrass; test: Test B postemergence herbicide test; type: in vivo, Alopecurus myosuroides; settings: postemergence, visual rating, scale 0 (no effect) to 100 (complete control)
In short: as §1

[5] = tested on: large crabgrass; test: Test B pre-/postemergence herbicide test; type: in vivo, Digitaria sanguinalis; settings: for Crabgrass, Large plant response rating: postemergence, visual rating, scale 0 (no effect) to 100 (complete control)
In short: (§3)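 Visual rating, 0 (no effect) to 100 (complete control), versus untreated controls after 13–15 d in greenhouse. Pre- and postemergence applications (postemergence plants 2–18 cm, 1–4 leaves); flooded paddy arm at 2-leaf stage. Compounds in non-phytotoxic solvent plus surfactant.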

[6] = tested on: barnyardgrass; test: Test B pre-/postemergence herbicide test; type: in vivo, Echinochloa crus-galli; settings: for Barnyardgrass plant response rating: postemergence, visual rating, scale 0 (no effect) to 100 (complete control)
In short: as §2

[7] = tested on: rice; test: Test B pre-/postemergence herbicide test; type: in vivo, Oryza sativa; settings: preemergence
In short: as §3

[8] = tested on: rice; test: Test C flooded paddy test; type: in vivo, Oryza sativa
In short: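 Plants were grown to the 1- to 4-leaf stage (2–18 cm) and then treated postemergence, or grown to the 2-leaf stage for the flooded paddy test. They were held in a greenhouse for 12 to 14 days and then scored by eye against controls, where 0 is no effect and 100 is complete control.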

[9] = tested on: small flower umbrella sedge; test: Test B flooded paddy test; type: in vivo, Cyperus difformis; settings: 1000 g ai/ha, visual rating, scale 0 to 100 (0 no effect, 100 complete control), 13 to 15 days
In short: as §1

[10] = tested on: corn; test: Test B pre-/postemergence herbicide test; type: in vivo, Zea mays; settings: for Corn plant response rating: postemergence, visual rating, scale 0 (no effect) to 100 (complete control)
In short: as §3

[11] = tested on: lambsquarters; test: Test B pre-/postemergence herbicide test; type: in vivo, Chenopodium album; settings: for Lambsquarters plant response rating: postemergence, visual rating, scale 0 (no effect) to 100 (complete control)
In short: as §3

[12] = tested on: ducksalad; test: Test C flooded paddy test; type: in vivo, Heteranthera limosa
[13] = tested on: rice; test: Test B flooded paddy test; type: in vivo, Oryza sativa; settings: 1000 g ai/ha, visual rating, scale 0 to 100 (0 no effect, 100 complete control), 13 to 15 days
In short: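 Read-out: visual comparison with controls, scored 0 to 100, where 100 means complete control and 0 no effect. Formulated chemicals were applied postemergence to plants 2–18 cm tall (1- to 4-leaf), or to flooded-paddy plants at the 2-leaf stage, then held 13 to 15 days under glass.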

[14] = tested on: wild oat; test: Test B postemergence herbicide test; type: in vivo, Avena fatua; settings: postemergence, visual rating, scale 0 (no effect) to 100 (complete control)
In short: (§4)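 Scale 0–100: zero equals no visible effect, 100 complete control, judged by eye relative to controls. Timing: 13 to 15 days in greenhouse post-treatment. Growth stage at spraying: two leaves (paddy) or one to four leaves, 2–18 cm (postemergence).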

[15] = tested on: Surinam grass; test: Test B pre-/postemergence herbicide test; type: in vivo, Urochloa decumbens; settings: for Surinam Grass plant response rating: postemergence, visual rating, scale 0 (no effect) to 100 (complete control)
In short: as §3

[16] = tested on: pigweed; test: Test B pre-/postemergence herbicide test; type: in vivo, Amaranthus retroflexus; settings: for Pigweed plant response rating: postemergence, visual rating, scale 0 (no effect) to 100 (complete control)
In short: as §3

[17] = tested on: giant foxtail; test: Test B pre-/postemergence herbicide test; type: in vivo, Setaria faberi; settings: for Foxtail, Giant plant response rating: postemergence, visual rating, scale 0 (no effect) to 100 (complete control)
In short: as §3

[18] = tested on: wheat; test: Test B postemergence herbicide test; type: in vivo, Triticum aestivum; set-up: key to Wheat plant response rating: 0 = no effect, 100 = complete control; settings: postemergence, visual rating, scale 0 (no effect) to 100 (complete control)
In short: as §4

[19] = tested on: velvetleaf; test: Test B pre-/postemergence herbicide test; type: in vivo, Abutilon theophrasti; settings: for Velvetleaf plant response rating: postemergence, visual rating, scale 0 (no effect) to 100 (complete control)
In short: as §3

[20] = tested on: smallflower umbrella sedge; test: Test C flooded paddy test; type: in vivo, Cyperus difformis
[21] = tested on: barnyardgrass; test: Test B flooded paddy test; type: in vivo, Echinochloa crus-galli; settings: 1000 g ai/ha, visual rating, scale 0 to 100 (0 no effect, 100 complete control), 13 to 15 days
In short: as §1

[22] = tested on: barnyardgrass; test: Test C flooded paddy test; type: in vivo, Echinochloa crus-galli
In short: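 Scoring by eye, 12–14 days post-treatment, greenhouse-held plants vs. controls; 0 no effect, 100 complete control. Sprayed at 1–4 leaves (2–18 cm); paddy barnyardgrass at 2 leaves, flooded.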

[23] = 125 g ai/ha, 0 = no effect, 100 = complete control, preemergence
[24] = 500 g ai/ha, visual rating 0-100, 0 no effect, 100 complete control, preemergence
[25] = 62 g ai/ha, scale 0 to 100 (0 no effect, 100 complete control)
[26] = 125 g ai/ha, scale 0 to 100 (0 no effect, 100 complete control)
[27] = 250 g ai/ha, scale of 0 to 100, 0 is no effect, 100 is complete control
[28] = 500 g ai/ha, visual rating after 12 to 14 days, scale 0 to 100 (0 no effect, 100 complete control)

CCOC(=O)c1cccc(NC(=O)c2cn(C(C)(C)C)nc2CC)c1 [Compound 186]
Ducksalad plant response rating [1]: 90 | Cocklebur plant response rating (0 to 100 scale) [2, 23]: 0 | Plant response rating, Cocklebur [2, 24]: 0 | Cocklebur plant response rating ([2]; 125 g ai/ha): 60 | Cocklebur plant response rating ([2]; 500 g ai/ha): 90 | Morningglory plant response rating (0 to 100 scale) [3, 23]: 0 | Plant response rating, Morningglory [3, 24]: 0 | Morningglory plant response rating ([3]; 125 g ai/ha): 20 | Morningglory plant response rating ([3]; 500 g ai/ha): 30 | Blackgrass plant response rating ([4]; 125 g ai/ha): 10 | Blackgrass plant response rating ([4]; 500 g ai/ha): 30 | Crabgrass, Large plant response rating (0 to 100 scale) [5, 23]: 0 | Plant response rating, Crabgrass, Large [5, 24]: 10 | Crabgrass, Large plant response rating ([5]; 125 g ai/ha): 10 | Crabgrass, Large plant response rating ([5]; 500 g ai/ha): 10 | Barnyardgrass plant response rating (0 to 100 scale) [6, 23]: 0 | Plant response rating, Barnyardgrass [6, 24]: 10 | Barnyardgrass plant response rating ([6]; 125 g ai/ha): 10 | Barnyardgrass plant response rating ([6]; 500 g ai/ha): 50 | Rice plant response rating (0 to 100 scale) ([7]; 125 g ai/ha, 0 = no effect, 100 = complete control): 0 | Plant response rating, Rice ([7]; 500 g ai/ha, visual rating 0-100, 0 no effect, 100 complete control): 20 | Rice plant response rating [8, 25]: 40 | Rice plant response rating [8, 26]: 55 | Rice plant response rating [8, 27]: 60 | Plant response rating, Rice [8, 28]: 65 | Sedge, Umbrella plant response rating [9]: 90 | Corn plant response rating (0 to 100 scale) [10, 23]: 0 | Plant response rating, Corn [10, 24]: 10 | Corn plant response rating ([10]; 125 g ai/ha): 20 | Corn plant response rating ([10]; 500 g ai/ha): 20 | Lambsquarters plant response rating (0 to 100 scale) [11, 23]: 0 | Plant response rating, Lambsquarters [11, 24]: 0 | Lambsquarters plant response rating ([11]; 125 g ai/ha): 10 | Lambsquarters plant response rating ([11]; 500 g ai/ha): 30 | Ducksalad plant response rating [12, 25]: 15 | Ducksalad plant response rating [12, 26]: 40 | Ducksalad plant response rating [12, 27]: 65 | Plant response rating, Ducksalad [12, 28]: 80 | Rice plant response rating [13]: 30 | Oat, Wild plant response rating ([14]; 125 g ai/ha): 10 | Oat, Wild plant response rating ([14]; 500 g ai/ha): 20 | Surinam Grass plant response rating (0 to 100 scale) [15, 23]: 0 | Plant response rating, Surinam Grass [15, 24]: 10 | Surinam Grass plant response rating ([15]; 125 g ai/ha): 10 | Surinam Grass plant response rating ([15]; 500 g ai/ha): 30 | Pigweed plant response rating (0 to 100 scale) [16, 23]: 0 | Plant response rating, Pigweed [16, 24]: 0 | Pigweed plant response rating ([16]; 125 g ai/ha): 60 | Pigweed plant response rating ([16]; 500 g ai/ha): 60 | Foxtail, Giant plant response rating (0 to 100 scale) [17, 23]: 0 | Plant response rating, Foxtail, Giant [17, 24]: 10 | Foxtail, Giant plant response rating ([17]; 125 g ai/ha): 10 | Foxtail, Giant plant response rating ([17]; 500 g ai/ha): 20 | Wheat plant response rating ([18]; 125 g ai/ha): 10 | Wheat plant response rating ([18]; 500 g ai/ha): 20 | Velvetleaf plant response rating (0 to 100 scale) [19, 23]: 10 | Plant response rating, Velvetleaf [19, 24]: 20 | Velvetleaf plant response rating ([19]; 125 g ai/ha): 60 | Velvetleaf plant response rating ([19]; 500 g ai/ha): 60 | Sedge, Umbrella plant response rating [20, 25]: 80 | Sedge, Umbrella plant response rating [20, 26]: 80 | Sedge, Umbrella plant response rating [20, 27]: 80 | Plant response rating, Sedge, Umbrella [20, 28]: 85 | Barnyardgrass plant response rating [21]: 30 | Barnyardgrass plant response rating [22, 25]: 20 | Barnyardgrass plant response rating ([22]; 125 g ai/ha, scale of 0 to 100, 0 is no effect, 100 is complete control): 30 | Barnyardgrass plant response rating [22, 27]: 45 | Plant response rating, Barnyardgrass [22, 28]: 70

Source: patent US20060069132A1, “Azolecarboxamide herbicides” (priority 2004, published 2006)
